Like-named read-outs stand apart in the source and are kept apart here.
What was measured:
[1] = tested on: ethanol withdrawal-induced seizures in C57BL/6 mice; assay: Ethanol withdrawal-induced seizures; type: in vivo; conditions: i.p. at 0700, 1100 and 1400 hours; (±)HA-966 3, 10 or 17 mg/kg; 7-Cl kynurenic acid 10, 17 or 30 mg/kg; carbamazepine 17, 30 or 50 mg/kg
Description: Male C57BL/6 mice were housed individually. One group of mice were each given a measured amount of liquid diet (BioServ) containing 6.7% ethanol (v/v) and a second, control group of mice each received the same diet with maltodextrin substituted isocalorically for ethanol, as their sole nutrient source for 7 days. A description of such a test can be found in Grant, K. A., et al., “ETHANOL WITHDRAWAL SEIZURES AND THE NMDA RECEPTOR COMPLEX,” Eur. J. Pharmacol., 176 289–296, (1990), the relevant disclosures of which are incorporated herein by reference. Pair-fed mice were given a volume of liquid diet equal to the average volume that the ethanol-fed mice consumed on the previous day. This treatment regimen produces mice that are functionally tolerant to and physically dependent on ethanol. Beginning at 0700 hours on the eighth day of the diet, ethanol-containing diet was replaced with control liquid diet (“withdrawal”).
Withdrawal seizure severity was assessed by measuring the incidence of handling-induced and spontaneous seizures, which were rated on a rating scale of 0 to 4, modified from a rating scale described by Grant, K. A., et al. in the above cited article. The rating scale was as follows: 0, little or no reaction; 1, slight jerkiness upon handling; 2, excitability increasing in magnitude to a clonic-tonic seizure; 3, spontaneous or instantaneous clonic-tonic seizure; 4, death while in a seizure. The mice were rated for seizure severity at 2, 4, 6, 7, 8, 9, 10, 11, 12 and 24 hours after ethanol withdrawal. Groups of ethanol-fed mice were injected intraperitoneally at 0700, 1100 and 1400 hours with saline, 3, 10 or 17 mg/kg (±)HA-966 (FIG. 5A) or 10, 17 or 30 mg/kg 7-Cl kynurenic acid (FIG. 5B).
Male C57BL/6 mice were fed ethanol in a liquid diet and the withdrawal seizure severity was assessed as described in EXAMPLE 5. Groups of ethanol-fed mice received a single injection (i.p.) of either vehicle (4% Tween-80, 0.5% carboxymethylcellulose in 0.9% saline) alone or of 100 mg/kg DCUK-OMe suspended in the vehicle administered at 0900 hours. The results are presented in FIG. 6A as the median withdrawal scores of vehicle-injected (N=14) or DCUK-OMe injected (N=6) mice in which * denotes P<0.05, statistically compared to vehicle-injected mice, in the Mann-Whitney U test. FIG. 6B presents the same data as the total withdrawal score, defined as the area enclosed by the curve connecting median withdrawal scores plotted against time as in FIG. 6A. The mean total withdrawal scores±SEM for the vehicle-injected group and DCUK-OMe-injected groups are plotted in which * denotes P<0.05, statistically compared to vehicle-injected mice, by the Student t-test.

[2] = tested on: naive C57BL/6 mice; assay: Accelerating rotarod, C57BL/6 mice; type: in vivo; conditions: 50 mg/kg i.p., 15 to 120 min after injection
Method: Naive C57BL/6 mice were trained to remain on an accelerating rotarod (diameter 3 cm, 0–30 rpm over 5 min) for six consecutive trials. A description of this test for the acute incoordinating/ataxic effects of sedative/hypnotic drugs such as ethanol can be found in Hoffman, P. L., et al., Life Sciences, 41 611–619 (1987), the relevant disclosures of which are incorporated herein by reference.
The amount of time the mice remained on the rotarod during their last trial was used as their “base-line” score. The mice were then treated with saline (n=10) or 50 mg/kg (±)HA-966 (n=5). The length of time the mice remained on the rotarod was redetermined at 15, 30, 60, 90, and 120 min after drug injection (i.p.). Results for each mouse at each time point were expressed as a ratio (percentage) of their pre-injection base-line time.

[3] = molecular target: T1, NR1a/NR2A recombinant receptors (Homo sapiens, UniProt Q05586); assay: NMDA-induced currents in oocytes expressing NR1a/NR2A; type: cell-based; conditions: 100 μM NMDA, 50 μM DCUKA, increasing glycine up to 100 μM
T1 construct: expressed in transfected cells; host or cells: Xenopus laevis oocytes, nuclear cDNA injection
Method: (§1) Oocytes were obtained from Xenopus laevis frogs (Nasco or Xenopus I) kept in aquarium tanks at 19–21° C., on a 12 hr light/dark cycle. Mature females were anesthetized by immersion for approximately 30 min in a 0.12% 3-aminobenzoic acid ethyl ester solution, a small incision was made in the abdominal wall and a piece of ovary was removed and placed in Modified Barth's solution (MBS; in mM) containing 88 NaCl, 1 KCl, 10 HEPES, 0.82 MgSO4, 2.4 NaHCO3, 0.91 CaCl2, 0.33 Ca(NO3)2 (pH 7.5). To facilitate manual dissection of oocytes, a section of ovary was transferred from MBS to a hypertonic buffer containing 108 mM NaCl, 2 mM KCl, 2 mM EDTA, 10 mM HEPES, pH 7.5 and theca and epithelial layers of mature oocytes (stages V and VI) were removed with surgical forceps. The follicular layer was removed by a 10 min immersion in 0.5 mg/ml of collagenase in buffer containing 83 mM NaCl, 2 mM KCl, 1 mM MgCl2 and 5 mM HEPES.
(§2) Human NR1a, NR2A and NR2B cDNAs in pCDNA-1Amp were transformed and amplified in XL-1 Blue cells and purified with the MaxPrep Qiagen kit. Oocytes were injected with cDNA into the nucleus in the following concentrations: NR1a/2A cDNAs 0.75 ng/30 nl 1:1 ratio, NR1a/2B cDNAs 3.0 ng/30 nl: 1:1 ratio. Injections were made with micropipettes (10 μm tip diameter) connected to a Drummond micropipettor attached to a micromanipulator. After injection, oocytes were individually placed in wells of 96-well microtiter plates containing incubation medium (MBS supplemented with 10 mg/l streptomycin, 10,000 U/l penicillin G, 50 mg/l gentamicin, 2 mM sodium pyruvate, 0.5 mM theophylline) that had been sterilized by passage through a […]. Oocytes were incubated at 19° C. for 2 to 4 days after injection.
(§3) Oocytes were placed in a rectangular chamber (approximately […]) and perfused (2 ml/min) with frog Ringer (in mM) containing 115 NaCl, 2.5 KCl, 1.8 CaCl2, 10 HEPES (pH 7.2). […] Control responses were always measured before and after addition of the DCUKA. […] Data are expressed as the % inhibition of the agonist response obtained in the absence of the drug.

[4] = molecular target: T2, strychnine-insensitive glycine binding site on the NMDA receptor (Rattus norvegicus, UniProt P35439); assay: [3H]5,7-DCKA binding to rat cortical membranes; conditions: 20 nM [3H]5,7-DCKA
T2 construct: from tissue; host or cells: rat cerebral cortex, crude synaptic (buffy coat) membranes
Method: Male Sprague-Dawley rats were killed, their brains removed, and their cerebral cortices dissected and binding of [^3H]5,7-dichlorokynurenate ([^3H]5,7-DCKA) assayed. [^3H]5,7-DCKA binding assays were performed in crude synaptic membranes prepared by a modification of the method of Jones, et al., J. Pharmacol. Methods, 21 161–168 (1989) the relevant disclosures of which are incorporated herein by reference. The pelleted “buffy coat”fraction was obtained by centrifugation and frozen at about −80° C. for at least 18 hours. On the day that the binding assays were performed, the pelleted membranes were resuspended in 50 mM HEPES-KOH buffer (pH 7.8) containing 0.08% TRITON® X-100. After stirring for about 30 min at about 4° C., the membranes were pelleted by recentrifugation and then washed twice by resuspension in buffer and centrifugation.
Binding assays were performed in 0.5 ml volume using 150–200 μg of tissue, 20 nM [^3H]5,7-DCKA and 3–300 μM DCUKA or MeO-DCUKA or 1–100 μM DCUK-OMe (all concentrations are final concentrations in 0.6% dimethyl sulfoxide (DMSO)). Incubations were performed for about 45 min at about 4° C. followed by termination by centrifugation. Bound radioactivity was quantitated by liquid scintillation spectroscopy. Non-specific binding was defined with 1 mM glycine.

[5] = molecular target: T3, NR1a/NR2B recombinant receptors (Homo sapiens, UniProt Q05586); assay: NMDA-induced currents in oocytes expressing NR1a/NR2B; type: cell-based; conditions: 100 μM NMDA, 50 μM DCUKA, increasing glycine
T3 construct: expressed in transfected cells; host or cells: Xenopus laevis oocytes, nuclear cDNA injection
Method: as §1, §2, §3

[6] = molecular target: voltage-sensitive sodium channels; assay: [3H]BTX binding to rat cortical synaptosomes
[7] = molecular target: T2, strychnine-insensitive glycine binding site on the NMDA receptor; conditions: none* = no displacement at 64 μM carbamazepine; taken from McCabe et al. 1993; cited from earlier work
[8] = tested on: heat shock protein (HSP72) in the hippocampus of C57BL/6 mice; assay: KA-induced increase in HSP72, Western blot; type: in vivo; conditions: 100 mg/kg i.p. 30 min before KA 30 mg/kg i.p., hippocampus at 24 hours
Method: See, for example, Gonzales, M. F. et al., “HEAT SHOCK PROTEINS AS MARKERS OF NEURAL INJURY,” Mol. Brain Res., 6 93–100 (1989), the relevant portions of which are incorporated herein by reference.
Groups of male C57BL/6 mice separately received either (1) no injections (Naive), (2) KA injections (30 mg/kg, i.p.), (3) 100 mg/kg MeO-DCUKA administered intraperitoneally, or (4) a pretreatment of 100 mg/kg MeO-DCUKA administered (vehicle as in Example 9) intraperitoneally about 30 minutes before receiving an injection of KA (30 mg/kg, i.p.). All of the mice were killed 24 hours later, their brains removed and the hippocampus dissected. HSP72 protein levels were determined in sodium dodecylsulfate (SDS)-solubilized hippocampal lysates by SDS-PAGE electrophoretic separation and subsequent Western blot analysis using antibodies specific for HSP72/73 proteins. Immunoreactive bands were visualized on film using enhanced chemiluminescence and quantitated by image analysis.

[9] = tested on: Swiss-Webster mice; assay: Ethanol-induced loss of righting reflex; type: in vivo; conditions: i.p. 30 minutes before ethanol; DCUK-OMe 100 mg/kg, DZP 1 mg/kg
Method: Swiss-Webster mice were pretreated (i.p.) with 100 mg/kg DCUK-OMe or 1 mg/kg diazepam (DZP) (in 5% Tween-80, 20% Intralipid) 30 minutes before receiving an i.p. administration of ethanol (either 2.3 or 3.2 g/kg, 20% v/v in saline.). The duration of the ethanol-induced loss of righting reflex (defined as the inability of the mouse to right itself when placed on its back in a trough) was measured. […] Since withdrawal signs are many times evident in individuals whose blood ethanol levels are dropping but are far from zero, the DCUK compounds would have an advantage over DZP in that the CNS depressant effects of ethanol would not be accentuated by DCUK compounds if the DCUK compounds are used in an alcohol-intoxicated individual.

[10] = tested on: naive Swiss-Webster mice; assay: Accelerating rotarod, Swiss-Webster mice; conditions: i.p.; DCUK-OMe 100 or 500 mg/kg, diazepam 1 mg/kg, carbamazepine 50 mg/kg
[11] = depolarizing conditions (135 mM KCl), read-out: IC50 (μM) [3H]BTX binding, values in parentheses
[12] = non-depolarizing conditions, none = no displacement at 100 μM, read-out: IC50 (μM) [3H]BTX binding

SMILES | ethanol withdrawal seizure severity [1] | IC50 [4] [µM] | IC50 [6, 11] [µM] | IC50 [6, 12] [µM] | further results
NC1CCN(O)C1=O (racemic) [(±)HA-966, 3-amino-1-hydroxypyrrolidin-2-one] | did not significantly reduce seizure severity |  |  |  | rotarod performance (ataxia/incoordination) [2]: impaired in their ability to remain on the rotarod at all time points tested
O=C(O)c1cc(=O)c2c(Cl)cc(Cl)cc2[nH]1 [5,7-DCKA, 5,7-dichlorokynurenate, reference compound] |  | 0.11 |  |  | reversal by glycine of inhibition of NMDA-induced currents [3]: competitively antagonizes NMDA receptors regardless of subunit composition; reversal by glycine of inhibition of NMDA-induced currents [5]: competitively antagonizes NMDA receptors regardless of subunit composition; IC50 (μM) [3H]BTX binding ([6]; non-depolarizing conditions, none = no displacement at 100 μM): none
O=C(O)c1cc(O)c2ccc(Cl)cc2n1 [7-Cl kynurenic acid] | did not significantly reduce seizure severity |  |  |  | 
NC(=O)N1c2ccccc2C=Cc2ccccc21 [Carbamazepine, carbamazepine, reference compound] | no significant reduction of severity or the duration of the signs of withdrawal |  | 56 | 71 | IC50 (μM) [3H]5,7-DCKA binding [7]: none*
COc1ccccc1N(C(=O)Nc1cc(C(=O)O)nc2cc(Cl)cc(Cl)c12)c1ccccc1 [MeO-DCUKA] |  | 35 | 30 | 64 | KA-induced increase in HSP72 protein levels [8]: prevented
CN1C(=O)CN=C(c2ccccc2)c2cc(Cl)ccc21 [diazepam, reference compound] |  |  |  |  | duration of ethanol-induced loss of righting reflex (LORR) [9]: significant (*P<0.05) enhancement; rotarod performance (ataxia/incoordination) [10]: produced significant incoordination
